Experimental data reported in patent US5084082A, “Soybean plants with dominant selectable trait for herbicide resistance” (priority 1990, dated 1992).

Key:
Assay type in all cases: in vivo, soybean
[1] = system: mutant line W4; assay: Test B postemergence cross resistance test; conditions: Glycine max, post-emergence; for % crop injury at 2 g/ha: W4, 2 g/ha postemergence
Summary of the method: (§1)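 Soybean resistant mutant lines and Williams 82 sprayed postemergence at second trifoliolate stage with 11 ALS inhibitors (eight sulfonylureas, three imidazolinones), each at two rates. Injury rated two to three times per pot over three weeks and averaged; line means compared by ANOVA and Fisher's LSD at 95% confidence.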

[2] = system: mutant line W17; assay: Test B postemergence cross resistance test; conditions: Glycine max, post-emergence; for soybean crop injury (%) at 2 g/ha: W17, 2 g/ha postemergence
Summary of the method: as §1

[3] = system: mutant line W19; assay: Test B postemergence cross resistance test; conditions: Glycine max, post-emergence; for percent soybean crop injury at 2 g/ha: W19, 2 g/ha postemergence
Summary of the method: as §1

[4] = system: mutant line W28; assay: Test B postemergence cross resistance test; conditions: Glycine max, post-emergence; for mean % injury to soybean at 2 g/ha: W28, 2 g/ha postemergence
Summary of the method: as §1

[5] = system: Williams 82; assay: Test B postemergence cross resistance test; conditions: Glycine max, post-emergence; for soybean crop injury at 2 g/ha: Wm 82, 2 g/ha postemergence
Summary of the method: as §1

[6] = system: mutant line W23; assay: Test B postemergence cross resistance test; conditions: Glycine max, post-emergence
Summary of the method: as §1

[7] = system: mutant W19; assay: Test A postemergence herbicide spray, greenhouse pots
From the text: (§2) In the first post-emergence test, two true-breeding resistant mutant lines, W19 and W20, were compared to previously isolated tolerant mutants and wild-type Williams 82. Eighteen pots (20 cm diameter) of each soybean line (2 seeds per pot) were planted using a standard sterile potting mix. When the seedlings reached the second trifoliolate stage, plants were thinned back to one plant per pot. Each pot was then sprayed with a specific herbicide treatment using a conveyor belt spray apparatus to emulate field application. The nine different herbicide treatments included one rate (8 g/ha) of Compound 1 and two rates (8 and 32 g/ha) each of four other sulfonylurea herbicides (Compounds 2,3,7 and 8) (see Table VI) using a factorial treatment design with 2 replications.
(§3) In both postemergence tests, plants were returned to the greenhouse after treatment and provided with ample light, moisture, and nutrients to support healthy plant growth. Two to three ratings per pot were recorded over a three-week period and averaged to obtain a single value for each pot For each herbicide, analysis of variance on injury ratings was performed separately. Fisher's least significant difference (LSD) was used to determine the significance of line mean differences at each herbicide rate using the 95% level of confidence. […]

[8] = system: mutant W20; assay: as above
From the text: as §2, §3

[9] = system: Williams 82; assay: as above
From the text: as §2, §3

[10] = system: Mutant 1-184A; assay: as above
From the text: as §2, §3

[11] = system: mutant line W20; assay: Test B postemergence cross resistance test; conditions: Glycine max, post-emergence
Summary of the method: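 Soybean mutant lines and Williams 82 sprayed postemergence at the second trifoliolate stage with ALS inhibitors (sulfonylureas, imidazolinones), each at two rates. Injury rated two to three times per pot over three weeks in the greenhouse and averaged; ANOVA per herbicide, Fisher's LSD at 95%.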

[12] = system: W20 seedlings; assay: Large-scale hydroponic screening pilot with Compound 8; conditions: 300 ppb used to irrigate the hydroponic system
From the text: The first screening protocol used was identical to the "Large-Scale Hydroponic Screening System" described previously except for the fact that 300 ppb of Compound 8 was used as the selective agent instead of 100 ppb of Compound 1. […] Rare seedlings developing true leaves became very obvious against the background of inhibited seedlings.

[13] = system: Williams 82; assay: Test C preemergence (soil) sulfonylurea application; conditions: 19 days after treatment
From the text: (§4) W20, a line homozygous for a dominant sulfonylurea-resistance mutation, was compared to Williams 82 in terms of response to preemergence application of three sulfonylurea herbicides. The experimental unit consisted of a single 18 cm pot filled with soil (Sassafras loamy sand with 0.8% organic matter and pH 6.7) in which 6 seeds of a given soybean line were planted 2 cm deep. After planting, each pot was sprayed (using a conveyor belt spray apparatus to emulate field application) with one of 22 different treatments including a check sprayed with AGWT (90% acetone, 4% glycerol, 4% water, 2% Tween-20), and 21 different herbicide treatments using AGWT as a carrier. The herbicide treatments included 7 different concentrations (Table IX) each of three sulfonyl-ureas: Compound 5, Compound 4, and Compound 1. Each herbicide x line treatment was replicated three times. After herbicide treatment, pots were transferred to a greenhouse and arranged in a randomized complete block design. Nineteen days after treatment, each pot was rated visually for herbicide injury using the scale described previously. For each herbicide, analysis of variance on injury ratings was performed separately. Fisher's least significant difference (LSD) was used to determine the significance of line mean differences at each rate using the 95% level of confidence.

[14] = system: W20; assay: as above; conditions: 19 days after treatment
From the text: as §4

## COC(=O)c1cccnc1S(=O)(=O)NC(=O)Nc1nc(OC)cc(OC)n1 [Compound 8, Methyl 2-[[[[(4,6-dimethoxy-2-pyrimidinyl)amino]carbonyl]amino]sulfonyl]-3-pyridinecarboxylate]
[1]; W4, 0.5 g/ha postemergence
  % crop injury at 0.5 g/ha: 39%
[1]
  % crop injury at 2 g/ha: 81%
[2]; W17, 0.5 g/ha postemergence
  soybean crop injury (%) at 0.5 g/ha: 26%
[2]
  soybean crop injury (%) at 2 g/ha: 83%
[3]; W19, 0.5 g/ha postemergence
  percent soybean crop injury at 0.5 g/ha: 29%
[3]
  percent soybean crop injury at 2 g/ha: 85%
[4]; W28, 0.5 g/ha postemergence
  mean % injury to soybean at 0.5 g/ha: 53%
[4]
  mean % injury to soybean at 2 g/ha: 84%
[5]; Wm 82, 0.5 g/ha postemergence
  soybean crop injury at 0.5 g/ha: 93%
[5]
  soybean crop injury at 2 g/ha: 98%
[6]; W23, 0.5 g/ha postemergence
  percent soybean injury at 0.5 g/ha: 21%
[6]; W23, 2 g/ha postemergence
  percent soybean injury at 2 g/ha: 70%
[7]; W19, 8 g/ha postemergence
  mean % injury: 84%
[7]; W19, 32 g/ha postemergence
  mean % injury: 95%
[8]; W20, 8 g/ha postemergence
  mean % injury: 93%
[8]; W20, 32 g/ha postemergence
  mean % injury: 97%
[9]; WM 82, 8 g/ha postemergence
  mean % injury: 95%
[9]; WM 82, 32 g/ha postemergence
  mean % injury: 95%
[10]; 8 g/ha postemergence
  mean % injury: 93%
[10]; 32 g/ha postemergence
  mean % injury: 92%
[11]; W20, 0.5 g/ha postemergence
  percent crop injury at 0.5 g/ha: 19%
[11]; W20, 2 g/ha postemergence
  percent crop injury at 2 g/ha: 89%
[12]
  seedling development: would not develop true leaves

## COc1nc(C)nc(NC(=O)NS(=O)(=O)c2ccccc2Cl)n1 [Compound 1, 2-chloro-N-[[(4-methoxy-6-methyl-1,3,5-triazin-2-yl)amino]carbonyl]benzenesulfonamide]
[1]
  % crop injury at 2 g/ha: 0%
[1]; W4, 8 g/ha postemergence
  % crop injury at 8 g/ha: 0%
[2]
  soybean crop injury (%) at 2 g/ha: 0%
[2]; W17, 8 g/ha postemergence
  soybean crop injury (%) at 8 g/ha: 0%
[3]
  percent soybean crop injury at 2 g/ha: 0%
[3]; W19, 8 g/ha postemergence
  percent soybean crop injury at 8 g/ha: 13%
[4]
  mean % injury to soybean at 2 g/ha: 0%
[4]; W28, 8 g/ha postemergence
  mean % injury to soybean at 8 g/ha: 0%
[5]
  soybean crop injury at 2 g/ha: 98%
[5]; Wm 82, 8 g/ha postemergence
  soybean crop injury at 8 g/ha: 100%
[6]; W23, 8 g/ha postemergence
  percent soybean injury at 8 g/ha: 0%
[7]; W19, 8 g/ha postemergence
  mean % injury: 12%
[8]; W20, 8 g/ha postemergence
  mean % injury: 13%
[9]; WM 82, 8 g/ha postemergence
  mean % injury: 97%
[10]; 8 g/ha postemergence
  mean % injury: 97%
[13]; WM 82, 0.3 g/ha preemergence
  % Injury: 30%
[13]; WM 82, 1 g/ha preemergence
  % Injury: 50%
[13]; WM 82, 3 g/ha preemergence
  % Injury: 73%
[13]; WM 82, 10 g/ha preemergence
  % Injury: 95%
[13]; WM 82, 30 g/ha preemergence
  % Injury: 100%
[13]; WM 82, 100 g/ha preemergence
  % Injury: 100%
[13]; WM 82, 300 g/ha preemergence
  % Injury: 100%
[14]; W20, 0.3 g/ha preemergence
  % Injury: 0%
[14]; W20, 1 g/ha preemergence
  % Injury: 0%
[14]; W20, 3 g/ha preemergence
  % Injury: 3%
[14]; W20, 10 g/ha preemergence
  % Injury: 3%
[14]; W20, 30 g/ha preemergence
  % Injury: 18%
[14]; W20, 100 g/ha preemergence
  % Injury: 63%
[14]; W20, 300 g/ha preemergence
  % Injury: 65%
[11]; W20, 8 g/ha postemergence
  percent crop injury at 8 g/ha: 0%
